Measurements published in ChEMBL document CHEMBL1146730, “New pyrazolo[3,4-d]pyrimidines endowed with A431 antiproliferative activity and inhibitory properties of Src phosphorylation” (Bioorg Med Chem Lett, 2004).

What was measured:
[1] = test system: A-431; test: Tested for antiproliferative activity against human A431 cells; type: functional, cell-based
[2] = test system: A-431; test: Inhibitory effect on phospho-Src/nonphospho after EGF (100 uM) stimulation of A431 cells (21); settings: Homo sapiens
[3] = test system: A-431; test: Inhibitory effect on phospho-Src (Tyr416) after EGF (100 uM) stimulation of A431 cells (38); settings: Homo sapiens
[4] = test system: A-431; test: cells; settings: Homo sapiens
Description: Inhibitory effect on nonphospho-Src after EGF (100 uM) stimulation of A431 cells (control=178)

IC50 [1] [µM] | Structure (SMILES) | other results
36 | CSc1nc(N2CCOCC2)c2cnn(/C=C/c3ccccc3)c2n1 | –
27 | CCCCNc1nc(SC)nc2c1cnn2CC(Cl)c1ccccc1 (configuration not stated) | –
– | CCCCNc1nc(SCC)nc2c1cnn2CC(Cl)c1ccccc1 (configuration not stated) | IC50 [2]: 33 µM; IC50 [3]: 53 µM
59 | C(=C\n1ncc2c(N3CCOCC3)ncnc21)/c1ccccc1 | –
54 | CSc1nc(N2CCCCC2)c2cnn(/C=C/c3ccccc3)c2n1 | –
– | CSc1nc(NCc2ccccc2)c2cnn(CC(Cl)c3ccccc3)c2n1 (configuration not stated) | IC50 [2]: 21 µM; IC50 [3]: 32 µM
20 | COc1cc2ncnc(Nc3cccc(Cl)c3)c2cc1OC [TYRPHOSTIN AG-1478] | –
50 | CCSc1nc(N2CCOCC2)c2cnn(/C=C/c3ccccc3)c2n1 | –
40 | CSc1nc(NCc2ccccc2)c2cnn(/C=C/c3ccccc3)c2n1 | –
61 | CCCNc1ncnc2c1cnn2/C=C/c1ccccc1 | –
124 | CCSc1nc(NCc2ccccc2)c2cnn(CC(Cl)c3ccccc3)c2n1 (configuration not stated) | –
– | CSc1nc(N2CCOCC2)c2cnn(CC(Cl)c3ccccc3)c2n1 (configuration not stated) | IC50 [2]: 24 µM; IC50 [3]: 34 µM
69 | C(=C\n1ncc2c(N3CCCCC3)ncnc21)/c1ccccc1 | –
91 | CCCCNc1ncnc2c1cnn2/C=C/c1ccccc1 | –
63 | C(=C\n1ncc2c(N3CCCC3)ncnc21)/c1ccccc1 | –
176 | CCSc1nc(N2CCCCC2)c2cnn(CC(Cl)c3ccccc3)c2n1 (configuration not stated) | –
– | CC(C)(C)n1nc(-c2ccc(Cl)cc2)c2c(N)ncnc21 | IC50 [2]: 17 µM; IC50 [3]: 22 µM; IC50 [4]: 131 µM
